Test results as given in patent US8071797B2 (priority 2008, dated 2011).

Experiments:
[1] = target: T1, HCV polymerase (NS5B570n-Con1) (Hepatitis C virus genotype 1b, UniProt Q9WMX2); assay: HCV NS5B RNA polymerase activity assay; assay type: biochemical, HCV Con1 strain
T1 construct: contains a 21 amino acid deletion at the C-terminus relative to the full-length HCV polymerase; 6-histidine (N); made in house; host or cells: E. coli BL21 (DE) pLysS
Summary of the method: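 His6-tagged NS5B Con1 (genotype 1b, 21-aa C-terminal deletion; 20 nM) copied 20 nM cIRES RNA template with [3H]UTP plus 1 μM ATP, CTP and GTP in pH 8.0 Tris buffer with 4 mM MgCl2 and DTT, 2 h at 30 °C. TCA-precipitated RNA counted by scintillation. IC50 from four-parameter fit versus no-compound control, no-enzyme background subtracted.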

[2] = tested on: HCV replicon cells (2209-23), genotype 1b replicon in Huh7 cells; assay: HCV replicon assay (Renilla luciferase reporter); assay type: cell-based, HCV genotype 1b; details: Hepatitis C virus, Huh-7, 72 h; cell line 2209-23, three days incubation
in vitro = details: human
HCV = details: monotherapy; cited from earlier work
[3] = IC50 NS5B polymerase assay, Table I
[4] = Polymerase Assay IC50, Table II

Structure (SMILES) | IC50 [1, 3] | IC50 [1, 4] | IC50 [2] | melting point | CC50 (in vitro) | patients in whom serum amino transferase levels are reduced to normal (HCV)
CNC(=O)c1c(-c2ccc(Nc3ccccc3)cc2)oc2cc(N(CCO)S(C)(=O)=O)c(OC)cc12 [Compound I-1, 6-[(2-hydroxy-ethyl)-methanesulfonyl-amino]-5-methoxy-2-(4-phenylamino-phenyl)-benzofuran-3-carboxylic acid methylamide] | 43 nM | 5 nM | 43 nM | 144.6 to 146.9 °C | 30600 nM | 
CNC(=O)c1c(-c2ccc(Oc3ccc(F)cc3)cc2)oc2cc(N(CCCN)S(C)(=O)=O)c(C3CC3)cc12 [Compound I-69] | 18 nM | 18 nM | 10 nM |  | 4600 nM | 
CNC(=O)c1c(-c2ccc(Oc3ccc(F)cc3)cc2)oc2cc(N(CCN)S(C)(=O)=O)c(C3CC3)cc12.Cl [Compound I-74] | 83 nM |  |  | 223 to 224 °C |  | 
CNC(=O)c1c(-c2ccc(Oc3ccccc3)cc2)oc2cc(N3CCOCC3)c(C3CC3)cc12 [Compound I-77] | 672 nM |  |  | 223.4 to 223.9 °C |  | 
CNC(=O)c1c(-c2ccc(Oc3ccccc3)cc2)oc2cc(N3CCCS3(=O)=O)c(C3CC3)cc12 [Compound I-82, 5-Cyclopropyl-6-(1,1-dioxo-1λ^6-isothiazolidin-2-yl)-2-(4-phenoxy-phenyl)-benzofuran-3-carboxylic acid methylamide] | 66 nM |  |  | 174 to 176 °C |  | 
CNC(=O)c1c(-c2ccc(Oc3ccc(F)cc3)cc2)oc2cc(N(CCS(C)(=O)=O)S(C)(=O)=O)c(C3CC3)cc12 [Compound I-83, 5-cyclopropyl-2-[4-(4-fluoro-phenoxy)-phenyl]-6-[methanesulfonyl-(2-methanesulfonyl-ethyl)-amino]-benzofuran-3-carboxylic acid methylamide] | 29 nM |  |  | 158 to 160 °C |  | 
CNC(=O)c1c(-c2ccc(Oc3ccccc3)cc2)oc2cc(N3CCCCS3(=O)=O)c(C3CC3)cc12 [Compound I-93] | 71 nM |  |  | 197 to 199 °C |  | 
CNC(=O)c1c(-c2ccc(Oc3ccccc3)cc2)oc2cc(N3CCNS3(=O)=O)c(C3CC3)cc12 [Compound I-102, 5-Cyclopropyl-6-(1,1-dioxo-1λ^6-[1,2,5]thiadiazolidin-2-yl)-2-(4-phenoxy-phenyl)-benzofuran-3-carboxylic acid methylamide] | 20 nM |  |  | 183.4 to 184.5 °C |  | 
CNC(=O)c1c(-c2ccc(Oc3ccc(F)cc3)cc2)oc2cc(C(C)=O)c(OC)cc12 [Compound I-104] | 139 nM |  |  | 207 to 209 °C |  | 
CNC(=O)c1c(-c2ccc(Oc3ccccc3)cc2)oc2cc(N3CCN(C)S3(=O)=O)c(C3CC3)cc12 [Compound I-105, 5-Cyclopropyl-6-(5-methyl-1,1-dioxo-1λ^6-[1,2,5]thiadiazolidin-2-yl)-2-(4-phenoxy-phenyl)-benzofuran-3-carboxylic acid methylamide] | 41 nM |  |  | 105 to 107 °C |  | 
CNC(=O)c1c(-c2ccc(Oc3ccc(F)cc3)cc2)oc2cc(N(CC(N)CO)S(C)(=O)=O)c(C3CC3)cc12.Cl (stereo not shown) [Compound I-107] | 19 nM |  |  | 178 to 180 °C |  | 
CNC(=O)c1c(-c2ccc(Oc3ccc(F)cc3)cc2)oc2cc(N(CCCNS(C)(=O)=O)S(C)(=O)=O)c(C3CC3)cc12 [Compound I-116] |  |  | 4 nM |  |  | 
CNC(=O)c1c(-c2ccc(Nc3ccccn3)cc2)oc2cc(N(CCO)S(C)(=O)=O)c(OC)cc12 [Compound I-123] | 156 nM |  |  | 241 to 243 °C |  | 
NC(=O)c1ncn([C@@H]2O[C@H](CO)[C@@H](O)[C@H]2O)n1 [ribavirin, 1-((2R,3R,4S,5R)-3,4-Dihydroxy-5-hydroxymethyl-tetrahydro-furan-2-yl)-1H-[1,2,4]triazole-3-carboxylic acid amide] |  |  |  |  |  | 40%
